Experiment: solvent given as SMILES

C[N+](=O)[O-]
Conditions	solvation free energy, 298 K [kcal/mol]
in Brc1ccccc1	-4.19
in C1CCCCC1	-2.81
in C1CCOC1	-5.04
in C1COCCO1	-5.08
in CC1COC(=O)O1	-5.38
in CC#N	-5.63
in CC(=O)N(C)C	-5.52
in CC(=O)O	-4.86
in CC(=O)c1ccccc1	-4.89
in CC(C)(C)O	-3.79
in CC(C)=O	-5.32
in CC(C)CC(C)(C)C	-2.74
in CC(C)CCCC(C)CCCC(C)CCCCC(C)CCCC(C)CCCC(C)C	-2.56
in CC(C)CCO	-3.74
in CC(C)O	-3.92
in CC(C)OC(C)C	-3.87
in CC(Cl)Cl	-4.84
in CCBr	-4.49
in CCC(C)=O	-5.11
in CCCC#N	-5.07
in CCCCC	-2.7
in CCCCCC	-2.8
in CCCCCCC	-2.62
in CCCCCCCC	-2.62
in CCCCCCCCCC	-2.69
in CCCCCCCCCCCCCCCC	-2.52
in CCCCCCCCO	-3.49
in CCCCCl	-4.07
in CCCCO	-3.88
in CCCCOCCCC	-3.57
in CCCO	-3.94
in CCN(CC)CC	-3.55
in CCO	-4.26
in CCOC(C)=O	-4.96
in CCOCC	-4.21
in CCOCCOCCOCC	-4.91
in CCOc1ccccc1	-4.39
in CN1CCCC1=O	-5.53
in CN(C)C=O	-5.58
in CN(C)P(=O)(N(C)C)N(C)C	-5.68
in CNC=O	-5.14
in CO	-4.66
in COC(C)=O	-5.13
in COCCO	-5
in COc1ccccc1	-4.65
in CS(C)=O	-5.63
in Cc1ccc(C)cc1	-4.13
in Cc1cccc(C)n1	-4.67
in Cc1cccc(O)c1	-4.68
in Cc1ccccc1	-4.27
in Cc1ccccn1	-4.88
in ClC(Cl)(Cl)Cl	-3.49
in ClC(Cl)Cl	-4.64
in ClCCCl	-4.9
in ClCCl	-4.98
in Clc1ccccc1	-4.24
in FC(F)(F)C(F)(F)C(F)(F)C(F)(F)C(F)(F)C(F)(F)F	-2.11
in Fc1c(F)c(F)c(F)c(F)c1F	-4.22
in Fc1ccccc1	-4.53
in ICI	-3.76
in Ic1ccccc1	-4.04
in NC=O	-4.73
in Nc1ccccc1	-5.08
in O	-4.03
in O=C1CCCCC1	-5.07
in O=C1CCCO1	-5.44
in O=CN1CCOCC1	-5.28
in OCCO	-4.07
in OCCOCCOCCO	-4.01
in OCc1ccccc1	-4.5
in S=C=S	-3.25
in [2H]O[2H]	-4.01
in c1ccc2ncccc2c1	-4.72
in c1ccc(COCc2ccccc2)cc1	-4.41
in c1ccccc1	-4.5
in c1ccncc1	-5.08

CC#N
Conditions	solvation free energy, 298 K [kcal/mol]
in Brc1cccc2ccccc12	-3.45
in C1CCOC1	-4.3
in C1COCCO1	-4.45
in CC(=O)N(C)C	-4.8
in CC(=O)OCc1ccccc1	-4.08
in CC(C)=O	-3.83
in CC(C)CCCC(C)CCCC(C)CCCCC(C)CCCC(C)CCCC(C)C	-1.87
in CCC(C)=O	-4.46
in CCCCCC	-2.41
in CCCCCCC	-2.28
in CCCCCCCC	-2.17
in CCCCCCCCCCCCCCCC	-2.04
in CCCCCCCCO	-3.15
in CCCCCl	-3.63
in CCCCN(C=O)CCCC	-4.08
in CCCCO	-3.55
in CCCCOCCCC	-2.89
in CCO	-3.96
in CCOC(C)=O	-4.19
in CCOCC	-3.63
in CN1CCCCC1=O	-4.65
in CN(C)C=O	-4.65
in CNC(C)=O	-4.23
in CO	-4.04
in COC(C)(C)C	-3.67
in COC(C)=O	-4.53
in Cc1ccc(C)cc1	-3.44
in ClC(Cl)(Cl)Cl	-3.03
in ClC(Cl)Cl	-4.43
in ClCCCl	-4.41
in ClCCl	-4.71
in Clc1ccccc1	-3.74
in NC=O	-4.37
in O	-3.92
in O=C1CCCCC1	-4.3
in [2H]O[2H]	-4.1
in c1ccc2ncccc2c1	-3.98

CCCCC(C)=O
Conditions	solvation free energy, 298 K [kcal/mol]
in C1COCCO1	-5.69
in CC(C)CC(C)(C)C	-4.72
in CCCCCC	-4.68
in CCCCCCC	-4.55
in CCCCCCCC	-4.6
in CCCCCCCCCC	-4.61
in CCCCCCCCCCCCCCCC	-4.39
in CCCCCCCCO	-5.02
in CO	-5.21
in ClC(Cl)(Cl)Cl	-5.36
in NC=O	-4.46
in O	-3.3
in [2H]O[2H]	-3.24

CC(=O)OCC(COC(C)=O)OC(C)=O
Conditions	solvation free energy, 298 K [kcal/mol]
in O	-8.84

CCOCCOC
Conditions	solvation free energy, 298 K [kcal/mol]
in ClC(Cl)(Cl)Cl	-5.85

CCCCCCCCCCCCCCCCCCCCCCC
Conditions	solvation free energy, 298 K [kcal/mol]
in CC(=O)N(C)C	-15.7
in CC(C)(C)O	-14.2
in CC(C)=O	-13.4
in CCC(C)=O	-14.3
in CCC(C)O	-14.1
in CCCCOC(C)=O	-14.9
in CCOC(C)=O	-14.4
in CN(C)C=O	-15.8
in COC(C)=O	-13.7
in O	5.07

CC(=O)CC(=O)c1ccc(F)c(F)c1F
Conditions	solvation free energy, 298 K [kcal/mol]
in O	-5.07

CCO
Conditions	solvation free energy, 298 K [kcal/mol]
in Brc1ccccc1	-3.13
in C1CCCCC1	-2.32
in C1CCOC1	-4.51
in C1COCCO1	-4.36
in C=CCCCCCCC	-2.34
in CC1COC(=O)O1	-4.2
in CC#N	-4.38
in CC(=O)N(C)C	-5.24
in CC(=O)O	-5.22
in CC(=O)c1ccccc1	-4.04
in CC(C)(C)O	-5.05
in CC(C)=O	-4.54
in CC(C)CC(C)(C)C	-2.36
in CC(C)CCCC(C)CCCC(C)CCCCC(C)CCCC(C)CCCC(C)C	-2.01
in CC(C)CCO	-4.8
in CC(C)CO	-4.79
in CC(C)O	-4.94
in CC(C)OC(C)C	-3.77
in CC(Cl)Cl	-3.56
in CCC(C)=O	-4.36
in CCCC#N	-4.1
in CCCCC(CC)COC(=O)CCCCC(=O)OCC(CC)CCCC	-3.37
in CCCCCCC	-2.2
in CCCCCCCC	-2.14
in CCCCCCCCC=CCCCCCCCC(=O)OCC(COC(=O)CCCCCCCC=CCCCCCCCC)OC(=O)CCCCCCCC=CCCCCCCCC	-3.22
in CCCCCCCCCC	-2.25
in CCCCCCCCCCCCCCCC	-1.97
in CCCCCCCCCCO	-4.1
in CCCCCCCCCOC(=O)c1ccccc1C(=O)OCCCCCCCCC	-3.26
in CCCCCCCCO	-4.43
in CCCCCO	-4.65
in CCCCCl	-3.07
in CCCCN(C=O)CCCC	-4.53
in CCCCO	-4.9
in CCCCOCCCC	-3.32
in CCCO	-4.91
in CCCOCCC	-3.45
in CCN(CC)C(C)=O	-5.06
in CCN(CC)CC	-4.02
in CCNC(C)=O	-4.95
in CCNC=O	-4.9
in CCOC(=O)c1ccccc1C(=O)OCC	-3.54
in CCOC(C)=O	-4.13
in CCOCC	-4.42
in CCOCCO	-4.56
in CCOCCOCCOCC	-4.21
in CCOP(=O)(OCC)OCC	-4.76
in CCOc1ccccc1	-3.36
in CN1CCCC1=O	-5.09
in CN1CCCCC1=O	-5.13
in CN1CCN(C)C1=O	-4.92
in CN(C)C=O	-5.1
in CN(C)P(=O)(N(C)C)N(C)C	-6.13
in CNC(C)=O	-4.98
in CNC=O	-4.96
in CO	-5.28
in COC(C)(C)C	-3.94
in COC(C)=O	-4.11
in COCCO	-4.79
in COP(=O)(OC)OC	-4.98
in COc1ccccc1	-3.52
in CS(C)=O	-5.24
in Cc1ccc(C)cc1	-3.12
in Cc1cccc(C)c1	-3
in Cc1cccc(C)n1	-4.87
in Cc1cccc(O)c1	-5.53
in Cc1ccccc1	-3.22
in Cc1ccccn1	-4.97
in ClC(Cl)(Cl)Cl	-2.97
in ClC(Cl)Cl	-3.96
in ClCCl	-3.75
in Clc1ccccc1	-3.18
in FC(F)(F)C(F)(F)C(F)(F)C(F)(F)C(F)(F)C(F)(F)F	-1.55
in Fc1c(F)c(F)c(F)c(F)c1F	-2.79
in Fc1ccccc1	-3.32
in ICI	-2.83
in Ic1ccccc1	-3.04
in NC=O	-4.84
in Nc1ccccc1	-4.38
in O	-5.01
in O=C1CCCCC1	-4.34
in O=C1CCCO1	-4.44
in O=CN1CCOCC1	-4.53
in OCC(O)CO	-4.32
in OCCO	-4.71
in OCCOCCO	-4.56
in OCCOCCOCCO	-4.17
in OCc1ccccc1	-4.79
in S=C=S	-2.71
in [2H]O[2H]	-5.08
in c1ccc2ncccc2c1	-4.53
in c1ccc(COCc2ccccc2)cc1	-3.38
in c1ccccc1	-3.28
in c1ccncc1	-5.05

CCCCC(=O)CC(=O)CCCC
Conditions	solvation free energy, 298 K [kcal/mol]
in O	-4.13

CCCC(=O)OC
Conditions	solvation free energy, 298 K [kcal/mol]
in CCCO	-4.47
in CO	-4.84
in O	-2.84

Clc1ccc2c(c1)Oc1cc(Cl)c(Cl)c(Cl)c1O2
Conditions	solvation free energy, 298 K [kcal/mol]
in O	-3.84

Nc1ccc(C(=O)O)cc1
Conditions	solvation free energy, 298 K [kcal/mol]
in C1COCCO1	-14.6
in CC(C)CCO	-13.7
in CC(C)CO	-13.8
in CC(C)O	-14.2
in CCC(C)O	-14
in CCCC(C)O	-13.9
in CCCCCCCCCCO	-13.3
in CCCCCCCCO	-13.5
in CCCCCCCO	-13.7
in CCCCCCO	-13.8
in CCCCCO	-13.9
in CCCCO	-14.1
in CCCO	-14.3
in CCO	-14.6
in CCOCC	-13.6

[N]=O
Conditions	solvation free energy, 298 K [kcal/mol]
in CC#N	0.63
in CCCCCC	0.47
in CCO	0.81
in CCOC(C)=O	0.55
in CCOCC	0.34
in CO	0.62
in Cc1cccc(C)c1	0.79
in Cc1ccccc1	0.76
in ClC(Cl)(Cl)Cl	0.62

CCCCCCc1ccccc1
Conditions	solvation free energy, 298 K [kcal/mol]
in CO	-7.13

C#CCCCCC
Conditions	solvation free energy, 298 K [kcal/mol]
in C1CCC2CCCCC2C1	-4.37
in C1CCC(C2CCCCC2)CC1	-4.33
in CN(C)C=O	-4.37
in CS(C)=O	-3.95
in N#CCCCCC#N	-3.83
in NCCO	-2.8
in O	0.59
in O=Cc1ccco1	-4.12
in OCc1ccco1	-3.93
in c1ccc2c(c1)CCCC2	-4.66
in c1ccc(C2CCCCC2)cc1	-4.56

CC1CCCC(C)(C)C1 (stereo unspecified)
Conditions	solvation free energy, 298 K [kcal/mol]
in O	2.23

C1COCCN1
Conditions	solvation free energy, 298 K [kcal/mol]
in C1COCCO1	-5.72
in O	-7.17

Nc1cccc(Cl)c1
Conditions	solvation free energy, 298 K [kcal/mol]
in O	-5.9

COC(OC)(OC)c1ccccc1
Conditions	solvation free energy, 298 K [kcal/mol]
in O	-4.04

CCSCC
Conditions	solvation free energy, 298 K [kcal/mol]
in O	-1.46

CCCN(CCC)c1c([N+](=O)[O-])cc(C(F)(F)F)cc1[N+](=O)[O-]
Conditions	solvation free energy, 298 K [kcal/mol]
in O	-3.25

COCc1ccc(C(=O)O)cc1
Conditions	solvation free energy, 298 K [kcal/mol]
in C=CCCCCCCCCCCCCCC	-8.27
in O	-9.89

C1CCOCC1
Conditions	solvation free energy, 298 K [kcal/mol]
in C1COCCO1	-4.53
in CC(C)CCl	-4.65
in CCC(C)Cl	-4.65
in CCCCCCCCCCCCCCCC	-3.89
in CCCCCCCCO	-4.34
in CCCCCl	-4.71
in O	-3.12
in [2H]O[2H]	-3.08

Reference: the CombiSolv-Exp solvation set (Vermeire and Green 2021)
